Assay results from US20250194600A1, “MESOIONIC ARYLPYRIDAZINIUM DERIVATIVE OR SALT THEREOF AND INSECTICIDAL AGENT CONTAINING THE COMPOUND AND METHOD FOR USING SAME” (NIHON NOHYAKU CO., LTD., priority 2022, published 2025).

What was measured:
[1] = system: Small Brown Planthopper (Laodelphax striatellus); test: Insecticidal test on small brown planthopper, dip treatment of rice plant seedlings; type: in vivo; settings: 192 h, rice seedlings dipped 30 seconds, 3rd-instar larvae, counted 8 days after inoculation, read-out: insecticidal efficacy (corrected mortality rate) against small brown planthopper
Description: (§1) • A: the mortality rate is 100%. • B: the mortality rate is 90 to 99%. • C: the mortality rate is 80 to 89%. • D: the mortality rate is 50 to 79%. • E: the mortality rate is 0 to 49.
Insecticidal Test on Small Brown Planthopper (Laodelphax striatellus)
The compounds represented by the general formula (1) of the present invention or salts thereof were separately dispersed in water and diluted to 50 ppm or 500 ppm. Rice plant seedlings (variety: Nihonbare) were dipped in the agrochemical dispersions for 30 seconds. After air-dried, each seedling was put into a separate glass test tube and inoculated with ten 3rd-instar larvae of small brown planthopper, and then the glass test tubes were capped with cotton plugs. At 8 days after the inoculation, the numbers of surviving larvae and dead larvae were counted, the corrected mortality rate was calculated according to the formula shown below, and the insecticidal efficacy was evaluated according to the criteria of Test Example 1.

[2] = system: Western flower thrips (Frankliniella occidentalis); test: Insecticidal test on western flower thrips, larvae on kidney bean leaf pieces; type: in vivo; settings: 96 h, hatched larvae on kidney bean leaf pieces, counted 4 days after treatment, read-out: insecticidal efficacy (corrected mortality rate) against western flower thrips
Description: as §1
Insecticidal Test on Western flower thrips (Frankliniella occidentalis)
Female adults of western flower thrips were inoculated onto kidney bean leaf pieces, and allowed to lay eggs thereon for one day, then the female adults were removed. After 3 days, the hatched larvae on the leaf pieces were counted, and then the agrochemical dispersions diluted to 50 ppm or 500 ppm, each of which contained the compound described in Tables 1 to 5 as an active ingredient were applied. The number of larvae of the species surviving at 4 days after the treatment was counted, and the corrected mortality rate was calculated according to the formula shown below, and the insecticidal efficacy was evaluated according to the criteria of Test Example 1. This test was conducted in duplicate.

O=C(Nc1ccc(F)cc1)c1c([S-])c[n+](-c2ccc(C(F)(F)F)nc2)nc1O [2-1, 4-((4-fluorophenyl)carbamoyl)-3-hydroxy-1-(6-(trifluoromethyl)pyridin-3-yl)pyridazin-1-ium-5-thiolate]
100%: mortality at 500 ppm [1] | mortality at 50 ppm ([2]; 50 ppm) | mortality at 500 ppm ([2]; 500 ppm)
